# Test results as given in patent US20050176655A1, “Novel macrolide derivatives havaing effect of potentiating antifungal activity” (priority 2002, published 2005).
# What was measured:
# Test in all cases: Paper disk method, enhancing action for activities of azole antifungal agents
# Format in all cases: cell-based
# [1] = test system: fluconazole resistant Candida albicans ATCC 64550; settings: 24 hours; for Inhibition activity (inhibition ring mm) C. albicans ATCC 64550 GYM / Transparency of the inhibition ring C. albicans ATCC 64550 GYM: miconazole 0.15 μg/ml; for Inhibition activity (inhibition ring mm) C. albicans ATCC 64550 GYF / Transparency of the inhibition ring C. albicans ATCC 64550 GYF: fluconazole 30 μg/ml
# Experimental: (§1) Test organisms used were Candida albicans ATCC 64548, fluconazole resistant Candida albicans ATCC 64550 and Aspergillus niger ATCC 6275. Candida spp. were cultured in Waksman broth (glucose 2.0%, peptone 0.5%, dry yeast 0.3%, meat extract 0.5%, NaCl 0.5% and CaCO3 0.3%, pH 7.0) at 27° C. for 40 hours, then 0.1% thereof was inoculated on GY agar medium (glucose 1.0%, yeast extract 0.5% and agar 0.8%, pH 6.0). Spore suspension 0.2% of Aspergillus niger ATCC 6275 was inoculated on GY agar medium.
# (§2) Azole antifungal agents used were miconazole (Sigma Inc., the U.S.) and fluconazole (ICN Pharmaceuticals, Inc., the U.S.), and were added at concentrations without affecting growth on each test organisms follows.
# Candida albicans ATCC 64550: miconazole 0.15 μg/ml or fluconazole 30 μg/ml.
# (§3) In the above medium, a medium added with miconazole to GY medium (control) is designated as GYM, and a medium added with fluconazole is designated as GYF. Activities were assessed by means of paper disk method (thickness: 8 mm, ADVANTEC MFS INC., Japan). Diameter of inhibition ring is expressed with mm unit after culturing Candida spp. for 24 hours and Aspergillus niger ATCC 6275 for 48 hours. Transparency of the inhibition ring is assessed with 5 degrees of A, B, C, D and E (transparence<A<B<C<D<E<opaque).
# [2] = test system: Aspergillus niger ATCC 6275; settings: 48 hours; for Inhibition activity (inhibition ring mm) A. niger ATCC 6275 GY / Transparency of the inhibition ring A. niger ATCC 6275 GY: GY medium (control, no azole); for Inhibition activity (inhibition ring mm) A. niger ATCC 6275 GYF / Transparency of the inhibition ring A. niger ATCC 6275 GYF: fluconazole 10 μg/ml; for Inhibition activity (inhibition ring mm) A. niger ATCC 6275 GYM / Transparency of the inhibition ring A. niger ATCC 6275 GYM: miconazole 0.1 μg/ml
# Experimental: as §1, §2
# Aspergillus niger ATCC 6275: miconazole 0.1 μg/ml or fluconazole 10 μg/ml.
# as §3
# [3] = test system: Candida albicans ATCC 64548; settings: 24 hours; for Inhibition activity (inhibition ring mm) C. albicans ATCC 64548 GYM / Transparency of the inhibition ring C. albicans ATCC 64548 GYM: miconazole 0.03 μg/ml; for Inhibition activity (inhibition ring mm) C. albicans ATCC 64548 GYF / Transparency of the inhibition ring C. albicans ATCC 64548 GYF: fluconazole 0.5 μg/ml
# Experimental: as §1, §2
# Candida albicans ATCC 64548: miconazole 0.03 μg/ml or fluconazole 0.5 μg/ml.
# as §3
SMILES,Inhibition activity (inhibition ring mm) A. niger ATCC 6275 GY ([2]; 50 μg/8 mm disk),Transparency of the inhibition ring A. niger ATCC 6275 GY ([2]; 50 μg/8 mm disk),Inhibition activity (inhibition ring mm) A. niger ATCC 6275 GYF ([2]; 50 μg/8 mm disk),Transparency of the inhibition ring A. niger ATCC 6275 GYF ([2]; 50 μg/8 mm disk),Inhibition activity (inhibition ring mm) A. niger ATCC 6275 GYM ([2]; 50 μg/8 mm disk),Transparency of the inhibition ring A. niger ATCC 6275 GYM ([2]; 50 μg/8 mm disk),Inhibition activity (inhibition ring mm) C. albicans ATCC 64550 GYF ([1]; 50 μg/8 mm disk),Transparency of the inhibition ring C. albicans ATCC 64550 GYF ([1]; 50 μg/8 mm disk),Inhibition activity (inhibition ring mm) C. albicans ATCC 64550 GYM ([1]; 50 μg/8 mm disk),Transparency of the inhibition ring C. albicans ATCC 64550 GYM ([1]; 50 μg/8 mm disk),Inhibition activity (inhibition ring mm) A. niger ATCC 6275 GYF ([2]; 10 μg/8 mm disk),Transparency of the inhibition ring A. niger ATCC 6275 GYF ([2]; 10 μg/8 mm disk),Inhibition activity (inhibition ring mm) C. albicans ATCC 64548 GYM ([3]; 10 μg/8 mm disk),Transparency of the inhibition ring C. albicans ATCC 64548 GYM ([3]; 10 μg/8 mm disk),Inhibition activity (inhibition ring mm) C. albicans ATCC 64548 GYM ([3]; 50 μg/8 mm disk),Transparency of the inhibition ring C. albicans ATCC 64548 GYM ([3]; 50 μg/8 mm disk),other results
"CCC(OC(C)=O)C(C)(O)C1OC(=O)C(C)C(OC2CC(C)(OC)C(OC(C)=O)C(C)O2)C(C)C(OC2OC(C)CC(NC)C2O)C2(C)CC(C)=C(O2)C1C (stereo not shown) [Compound 756, 4″,13-Di-O-acetyl-de (3′-N-methyl)-8,9-Anhydro-pseudoerythromycin A 6,9-hemiketal]",10 mm,E (Growth of test organism was inhibited 35% or less.),14 mm,E (Growth of test organism was inhibited 35% or less.),14 mm,E (Growth of test organism was inhibited 35% or less.),,,,,,,,,,,Inhibition activity (inhibition ring mm) C. albicans ATCC 64550 GYM ([1]; 100 μg/8 mm disk): 10 mm; Transparency of the inhibition ring C. albicans ATCC 64550 GYM ([1]; 100 μg/8 mm disk): E (Growth of test organism was inhibited 35% or less.); Inhibition activity (inhibition ring mm) C. albicans ATCC 64548 GYM ([3]; 100 μg/8 mm disk): 15 mm; Transparency of the inhibition ring C. albicans ATCC 64548 GYM ([3]; 100 μg/8 mm disk): D (Growth of test organism was inhibited 35% or more and 55% or less.)
"CCC(OC(=O)c1ccccc1)C(C)(O)C1OC(=O)C(C)C(OC2CC(C)(OC)C(OC(=O)c3ccccc3)C(C)O2)C(C)C(OC2OC(C)CC(N(C)C)C2OC(=O)c2ccccc2)C2(C)CC(C)=C(O2)C1C (stereo not shown) [Compound 770, 2′,4″,13-Tri-O-benzoyl-8,9-Anhydro-pseudoerythromycin A 6,9-hemiketal]",11 mm,E (Growth of test organism was inhibited 35% or less.),18 mm,E (Growth of test organism was inhibited 35% or less.),12 mm,E (Growth of test organism was inhibited 35% or less.),13 mm,C (Growth of test organism was inhibited 55% or more and 75% or less.),13 mm,A (Growth of test organism was inhibited 95% or more.),11 mm,E (Growth of test organism was inhibited 35% or less.),11 mm,D (Growth of test organism was inhibited 35% or more and 55% or less.),14 mm,C (Growth of test organism was inhibited 55% or more and 75% or less.),Inhibition activity (inhibition ring mm) C. albicans ATCC 64548 GYF ([3]; 100 μg/8 mm disk): 11 mm; Transparency of the inhibition ring C. albicans ATCC 64548 GYF ([3]; 100 μg/8 mm disk): D (Growth of test organism was inhibited 35% or more and 55% or less.)
"CCC(=O)OC1C(C)OC(OC2C(C)C(=O)OC(C(C)(O)C(CC)OC(=O)CC)C(C)C3=C(C)CC(C)(O3)C(OC3OC(C)CC(N(C)C)C3OC(C)=O)C2C)CC1(C)OC (stereo not shown) [Compound 771, 2′-O-acetyl-4″,13-Di-O-propionyl-8,9-Anhydro-pseudoerythromycin A 6,9-hemiketal]",,,15 mm,E (Growth of test organism was inhibited 35% or less.),23 mm,E (Growth of test organism was inhibited 35% or less.),10 mm,E (Growth of test organism was inhibited 35% or less.),10 mm,A (Growth of test organism was inhibited 95% or more.),14 mm,E (Growth of test organism was inhibited 35% or less.),,,12 mm,D (Growth of test organism was inhibited 35% or more and 55% or less.),
"CCCCCC(=O)OC1C(C)OC(OC2C(C)C(=O)OC(C(C)(O)C(CC)OC(=O)CCCCC)C(C)C3=C(C)CC(C)(O3)C(OC3OC(C)CC(N(C)C)C3OC(C)=O)C2C)CC1(C)OC (stereo not shown) [Compound 772, 2′-O-acetyl-4″,13-Di-O-hexanoyl-8,9-Anhydro-pseudoerythromycin A 6,9-hemiketal]",12 mm,E (Growth of test organism was inhibited 35% or less.),10 mm,D (Growth of test organism was inhibited 35% or more and 55% or less.),13 mm,A (Growth of test organism was inhibited 95% or more.),14 mm,B (Growth of test organism was inhibited 75% of more and 95% or less.),12 mm,A (Growth of test organism was inhibited 95% or more.),10 mm,D (Growth of test organism was inhibited 35% or more and 55% or less.),14 mm,B (Growth of test organism was inhibited 75% of more and 95% or less.),12 mm,B (Growth of test organism was inhibited 75% of more and 95% or less.),Inhibition activity (inhibition ring mm) C. albicans ATCC 64550 GYF ([1]; 10 μg/8 mm disk): 11 mm; Transparency of the inhibition ring C. albicans ATCC 64550 GYF ([1]; 10 μg/8 mm disk): E (Growth of test organism was inhibited 35% or less.); Inhibition activity (inhibition ring mm) A. niger ATCC 6275 GYM ([2]; 10 μg/8 mm disk): 12 mm; Transparency of the inhibition ring A. niger ATCC 6275 GYM ([2]; 10 μg/8 mm disk): E (Growth of test organism was inhibited 35% or less.); Inhibition activity (inhibition ring mm) C. albicans ATCC 64548 GYF ([3]; 10 μg/8 mm disk): 9 mm; Transparency of the inhibition ring C. albicans ATCC 64548 GYF ([3]; 10 μg/8 mm disk): D (Growth of test organism was inhibited 35% or more and 55% or less.); Inhibition activity (inhibition ring mm) C. albicans ATCC 64548 GYF ([3]; 50 μg/8 mm disk): 10 mm; Transparency of the inhibition ring C. albicans ATCC 64548 GYF ([3]; 50 μg/8 mm disk): D (Growth of test organism was inhibited 35% or more and 55% or less.)
